# From US20260015358A1, “BICYCLIC DERIVATIVES, COMPOSITIONS AND USES THEREOF” (Danatlas Pharmaceuticals Co., Ltd., priority 2023, published 2026)
# Key:
# [1] = biological target: T1, WRN [UniPro: Q14191 (WRN_HUMAN), N500-C946] (Homo sapiens (Human), UniProt Q14191); test: WRN ATPase assay (ADP-Glo); assay type: biochemical; settings: WRN enzymatic activity assay
# [2] = biological target: T1, WRN [UniPro: Q14191 (WRN_HUMAN), N500-C946]; test: WRN unwinding assay (FORKF DNA, fluorescence); assay type: biochemical; settings: Table 14
# T1 sequence (Q14191 500-946): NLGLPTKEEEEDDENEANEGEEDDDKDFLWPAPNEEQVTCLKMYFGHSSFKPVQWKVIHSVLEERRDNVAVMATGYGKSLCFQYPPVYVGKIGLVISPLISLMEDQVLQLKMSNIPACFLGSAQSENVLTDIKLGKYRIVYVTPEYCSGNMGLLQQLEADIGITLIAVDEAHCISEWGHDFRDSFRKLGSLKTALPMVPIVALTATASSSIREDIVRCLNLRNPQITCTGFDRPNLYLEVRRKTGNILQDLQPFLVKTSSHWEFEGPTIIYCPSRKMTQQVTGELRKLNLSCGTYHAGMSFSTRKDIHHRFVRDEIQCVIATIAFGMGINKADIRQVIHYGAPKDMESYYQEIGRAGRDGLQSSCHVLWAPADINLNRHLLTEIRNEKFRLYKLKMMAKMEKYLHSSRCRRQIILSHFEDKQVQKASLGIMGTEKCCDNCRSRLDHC
Structure (SMILES),IC50 [1],IC50 [2]
"CCc1c(N2CCN(C(=O)CNC(=O)c3ccnn3C)CC2)c(=O)n2nc(C3=CCOCC3)nc2n1CC(=O)Nc1ccc(C(F)(F)F)cc1Cl [Example 114, N-(2-(4-(4-(2-((2-Chloro-4-(trifluoromethyl)phenyl)amino)-2-oxoethyl)-2-(3,6-dihydro-2H-pyran-4-yl)-5-ethyl-7-oxo-4,7-dihydro-[1,2,4]triazolo[1,5-a]pyrimidin-6-yl)piperazin-1-yl)-2-oxoethyl)-1-methyl-1H-pyrazole-5-carboxamide]",< 100 nM,< 100 nM
"CCc1c(N2CCN(C(=O)CNC(=O)c3cc(F)cc(F)c3)CC2)c(=O)n2nc(C3=CCOCC3)nc2n1CC(=O)Nc1ccc(C(F)(F)F)cc1Cl [Example 115, N-(2-(4-(4-(2-((2-Chloro-4-(trifluoromethyl)phenyl)amino)-2-oxoethyl)-2-(3,6-dihydro-2H-pyran-4-yl)-5-ethyl-7-oxo-4,7-dihydro-[1,2,4]triazolo[1,5-a]pyrimidin-6-yl)piperazin-1-yl)-2-oxoethyl)-3,5-difluorobenzamide]",< 100 nM,< 100 nM
"CCc1c(N2CCN(C(=O)CNC(=O)c3cccc(F)c3F)CC2)c(=O)n2nc(C3=CCOCC3)nc2n1CC(=O)Nc1ccc(C(F)(F)F)cc1Cl [Example 116, N-(2-(4-(4-(2-((2-Chloro-4-(trifluoromethyl)phenyl)amino)-2-oxoethyl)-2-(3,6-dihydro-2H-pyran-4-yl)-5-ethyl-7-oxo-4,7-dihydro-[1,2,4]triazolo[1,5-a]pyrimidin-6-yl)piperazin-1-yl)-2-oxoethyl)-2,3-difluorobenzamide]",< 100 nM,< 100 nM
"CCc1c(N2CCN(C(=O)CNC(=O)c3ccc(F)cc3F)CC2)c(=O)n2nc(C3=CCOCC3)nc2n1CC(=O)Nc1ccc(C(F)(F)F)cc1Cl [Example 117, N-(2-(4-(4-(2-((2-Chloro-4-(trifluoromethyl)phenyl)amino)-2-oxoethyl)-2-(3,6-dihydro-2H-pyran-4-yl)-5-ethyl-7-oxo-4,7-dihydro-[1,2,4]triazolo[1,5-a]pyrimidin-6-yl)piperazin-1-yl)-2-oxoethyl)-2,4-difluorobenzamide]",< 100 nM,< 100 nM
"CCc1c(N2CCN(C(=O)CNC(=O)c3cc(F)ccc3F)CC2)c(=O)n2nc(C3=CCOCC3)nc2n1CC(=O)Nc1ccc(C(F)(F)F)cc1Cl [Example 118, N-(2-(4-(4-(2-((2-Chloro-4-(trifluoromethyl)phenyl)amino)-2-oxoethyl)-2-(3,6-dihydro-2H-pyran-4-yl)-5-ethyl-7-oxo-4,7-dihydro-[1,2,4]triazolo[1,5-a]pyrimidin-6-yl)piperazin-1-yl)-2-oxoethyl)-2,5-difluorobenzamide]",< 100 nM,< 100 nM
"CCc1c(N2CCN(C(=O)CNC(=O)c3ccc(OC)cc3)CC2)c(=O)n2nc(C3=CCOCC3)nc2n1CC(=O)Nc1ccc(C(F)(F)F)cc1Cl [Example 119, N-(2-(4-(4-(2-((2-Chloro-4-(trifluoromethyl)phenyl)amino)-2-oxoethyl)-2-(3,6-dihydro-2H-pyran-4-yl)-5-ethyl-7-oxo-4,7-dihydro-[1,2,4]triazolo[1,5-a]pyrimidin-6-yl)piperazin-1-yl)-2-oxoethyl)-4-methoxybenzamide]",< 100 nM,< 100 nM
"CCc1c(N2CCN(C(=O)CNC(=O)c3cnc4c(ccn4C)c3O)CC2)c(=O)n2nc(C3=CCOCC3)nc2n1CC(=O)Nc1ccc(C(F)(F)F)cc1Cl [Example 120, N-(2-(4-(4-(2-((2-Chloro-4-(trifluoromethyl)phenyl)amino)-2-oxoethyl)-2-(3,6-dihydro-2H-pyran-4-yl)-5-ethyl-7-oxo-4,7-dihydro-[1,2,4]triazolo[1,5-a]pyrimidin-6-yl)piperazin-1-yl)-2-oxoethyl)-4-hydroxy-1-methyl-1H-pyrrolo[2,3-b]pyridine-5-carboxamide]",100 to 1000 nM,< 100 nM
"CCc1c(N2CCN(C(=O)CNC(=O)c3c[nH]cn3)CC2)c(=O)n2nc(C3=CCOCC3)nc2n1CC(=O)Nc1ccc(C(F)(F)F)cc1Cl [Example 121, N-(2-(4-(4-(2-((2-Chloro-4-(trifluoromethyl)phenyl)amino)-2-oxoethyl)-2-(3,6-dihydro-2H-pyran-4-yl)-5-ethyl-7-oxo-4,7-dihydro-[1,2,4]triazolo[1,5-a]pyrimidin-6-yl)piperazin-1-yl)-2-oxoethyl)-1H-imidazole-4-carboxamide]",< 100 nM,< 100 nM
"CCc1c(N2CCN(C(=O)CNC(=O)c3cc(C)ns3)CC2)c(=O)n2nc(C3=CCOCC3)nc2n1CC(=O)Nc1ccc(C(F)(F)F)cc1Cl [Example 122, N-(2-(4-(4-(2-((2-Chloro-4-(trifluoromethyl)phenyl)amino)-2-oxoethyl)-2-(3,6-dihydro-2H-pyran-4-yl)-5-ethyl-7-oxo-4,7-dihydro-[1,2,4]triazolo[1,5-a]pyrimidin-6-yl)piperazin-1-yl)-2-oxoethyl)-3-methylisothiazole-5-carboxamide]",< 100 nM,< 100 nM
"CCc1c(N2CCN(C(=O)CNC(=O)c3ncco3)CC2)c(=O)n2nc(C3=CCOCC3)nc2n1CC(=O)Nc1ccc(C(F)(F)F)cc1Cl [Example 123, N-(2-(4-(4-(2-((2-Chloro-4-(trifluoromethyl)phenyl)amino)-2-oxoethyl)-2-(3,6-dihydro-2H-pyran-4-yl)-5-ethyl-7-oxo-4,7-dihydro-[1,2,4]triazolo[1,5-a]pyrimidin-6-yl)piperazin-1-yl)-2-oxoethyl)oxazole-2-carboxamide]",< 100 nM,< 100 nM
"CCc1c(N2CCN(C(=O)CNC(=O)c3c(F)cccc3F)CC2)c(=O)n2nc(C3=CCOCC3)nc2n1CC(=O)Nc1ccc(C(F)(F)F)cc1Cl [Example 124, N-(2-(4-(4-(2-((2-Chloro-4-(trifluoromethyl)phenyl)amino)-2-oxoethyl)-2-(3,6-dihydro-2H-pyran-4-yl)-5-ethyl-7-oxo-4,7-dihydro-[1,2,4]triazolo[1,5-a]pyrimidin-6-yl)piperazin-1-yl)-2-oxoethyl)-2,6-difluorobenzamide]",< 100 nM,< 100 nM
"CCc1c(N2CCN(C(=O)CNC(=O)c3c(Cl)cccc3Cl)CC2)c(=O)n2nc(C3=CCOCC3)nc2n1CC(=O)Nc1ccc(C(F)(F)F)cc1Cl [Example 125, 2,6-Dichloro-N-(2-(4-(4-(2-((2-chloro-4-(trifluoromethyl)phenyl)amino)-2-oxoethyl)-2-(3,6-dihydro-2H-pyran-4-yl)-5-ethyl-7-oxo-4,7-dihydro-[1,2,4]triazolo[1,5-a]pyrimidin-6-yl)piperazin-1-yl)-2-oxoethyl)benzamide]",100 to 1000 nM,< 100 nM
"CCc1c(N2CCN(C(=O)CNC(=O)c3cc(Cl)ccc3Cl)CC2)c(=O)n2nc(C3=CCOCC3)nc2n1CC(=O)Nc1ccc(C(F)(F)F)cc1Cl [Example 126, 2,5-Dichloro-N-(2-(4-(4-(2-((2-chloro-4-(trifluoromethyl)phenyl)amino)-2-oxoethyl)-2-(3,6-dihydro-2H-pyran-4-yl)-5-ethyl-7-oxo-4,7-dihydro-[1,2,4]triazolo[1,5-a]pyrimidin-6-yl)piperazin-1-yl)-2-oxoethyl)benzamide]",< 100 nM,< 100 nM
"CCc1c(N2CCN(C(=O)CNC(=O)c3ncc(C)s3)CC2)c(=O)n2nc(C3=CCOCC3)nc2n1CC(=O)Nc1ccc(C(F)(F)F)cc1Cl [Example 128, N-(2-(4-(4-(2-((2-Chloro-4-(trifluoromethyl)phenyl)amino)-2-oxoethyl)-2-(3,6-dihydro-2H-pyran-4-yl)-5-ethyl-7-oxo-4,7-dihydro-[1,2,4]triazolo[1,5-a]pyrimidin-6-yl)piperazin-1-yl)-2-oxoethyl)-5-methylthiazole-2-carboxamide]",100 to 1000 nM,< 100 nM
"CCc1c(N2CCN(C(=O)CNC(=O)c3cscn3)CC2)c(=O)n2nc(C3=CCOCC3)nc2n1CC(=O)Nc1ccc(C(F)(F)F)cc1Cl [Example 129, N-(2-(4-(4-(2-((2-Chloro-4-(trifluoromethyl)phenyl)amino)-2-oxoethyl)-2-(3,6-dihydro-2H-pyran-4-yl)-5-ethyl-7-oxo-4,7-dihydro-[1,2,4]triazolo[1,5-a]pyrimidin-6-yl)piperazin-1-yl)-2-oxoethyl)thiazole-4-carboxamide]",< 100 nM,< 100 nM
"CCc1c(N2CCN(C(=O)CNC(=O)c3cc(C)no3)CC2)c(=O)n2nc(C3=CCOCC3)nc2n1CC(=O)Nc1ccc(C(F)(F)F)cc1Cl [Example 130, N-(2-(4-(4-(2-((2-Chloro-4-(trifluoromethyl)phenyl)amino)-2-oxoethyl)-2-(3,6-dihydro-2H-pyran-4-yl)-5-ethyl-7-oxo-4,7-dihydro-[1,2,4]triazolo[1,5-a]pyrimidin-6-yl)piperazin-1-yl)-2-oxoethyl)-3-methylisoxazole-5-carboxamide]",< 100 nM,< 100 nM
"CCc1c(N2CCN(C(=O)CNC(=O)c3cnc(C)s3)CC2)c(=O)n2nc(C3=CCOCC3)nc2n1CC(=O)Nc1ccc(C(F)(F)F)cc1Cl [Example 131, N-(2-(4-(4-(2-((2-Chloro-4-(trifluoromethyl)phenyl)amino)-2-oxoethyl)-2-(3,6-dihydro-2H-pyran-4-yl)-5-ethyl-7-oxo-4,7-dihydro-[1,2,4]triazolo[1,5-a]pyrimidin-6-yl)piperazin-1-yl)-2-oxoethyl)-2-methylthiazole-5-carboxamide]",100 to 1000 nM,< 100 nM
"CCc1c(N2CCN(C(=O)CNC(=O)c3ccc(F)c(F)c3)CC2)c(=O)n2nc(C3=CCOCC3)nc2n1CC(=O)Nc1ccc(C(F)(F)F)cc1Cl [Example 132, N-(2-(4-(4-(2-((2-Chloro-4-(trifluoromethyl)phenyl)amino)-2-oxoethyl)-2-(3,6-dihydro-2H-pyran-4-yl)-5-ethyl-7-oxo-4,7-dihydro-[1,2,4]triazolo[1,5-a]pyrimidin-6-yl)piperazin-1-yl)-2-oxoethyl)-3,4-difluorobenzamide]",< 100 nM,< 100 nM
